Experimental data as given in patent US20260158009A1 (GENZYME CORPORATION, priority 2023, published 2026).

Columns and labels:
[1] = target: T1, hRIPK1 (aa 1-375) fusion protein (Homo sapiens, UniProt Q13546); test: ADP-Glo kinase assay: catalytic activity of RIPK1 (autophosphorylation, conversion of ATP to ADP); format: biochemical
T1 construct: hRIPK1 (aa 1-375) fusion protein
T1 sequence (Q13546 1-375): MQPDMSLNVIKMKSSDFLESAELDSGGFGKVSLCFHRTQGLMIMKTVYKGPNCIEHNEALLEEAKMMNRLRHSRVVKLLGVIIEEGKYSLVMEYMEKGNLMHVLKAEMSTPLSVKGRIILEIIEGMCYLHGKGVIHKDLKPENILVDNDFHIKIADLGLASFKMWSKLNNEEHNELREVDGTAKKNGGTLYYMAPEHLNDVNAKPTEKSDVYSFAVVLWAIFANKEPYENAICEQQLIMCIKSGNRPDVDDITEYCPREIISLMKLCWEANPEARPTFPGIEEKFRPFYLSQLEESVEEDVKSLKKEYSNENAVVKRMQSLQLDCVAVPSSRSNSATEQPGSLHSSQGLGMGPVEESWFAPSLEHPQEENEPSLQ
Summary of the method: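 hRIPK1 (aa 1-375) fusion protein (3.6 μg/ml final) was preincubated 30 min at rt with compound (33300-1.69 nM, 1% DMSO), then 50 μM ATP was added for 240 min at rt. ADP from autophosphorylation was measured by ADP-Glo luminescence and curves fitted by nonlinear regression.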

[2] = test system: U937 cells; test: Cellular assay in U937 cells: activity of RIPK1 inhibitors on TNFα/zVAD.fmk-induced cell death (necroptosis), CellTiter 96 AQueous (MTS) readout; format: cell-based; settings: Homo sapiens, U-937
Summary of the method: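 Necroptosis was measured by viable-cell MTS reduction (4 h, absorbance 490 nm) after overnight (18–24 h) 37° C culture. Cell suspensions of U937 cells carried TNFα (100 ng/ml) plus zVAD.fmk (50 μM) before compound was added. A 10-point curve (10 μM–0.26 nM or 1 μM–0.07 nM) was run in duplicate, normalised to the control lacking TNFα/zVAD.fmk.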

Row | SMILES | IC50 [1] [µM] | IC50 [2] [µM]
1 | Cc1cc(C)n(-c2cc(C[C@H]3CC[C@H](C(=O)N4OCC[C@H]4c4cc(F)cc(F)c4)CC3)ncn2)n1 [compound 125, trans-[(3S)-3-(3,5-difluorophenyl)isoxazolidin-2-yl]-[4-[[6-(3,5-dimethylpyrazol-1-yl)pyrimidin-4-yl]methyl]cyclohexyl]methanone] | 0.009 | 0.016
2 | CNC(=O)c1cc(F)cc(C[C@H]2CC[C@H](C(=O)N3OCC[C@H]3c3cc(F)cc(C#N)c3)CC2)c1 [compound 164, trans-3-[[4-[(3S)-3-(3-cyano-5-fluoro-phenyl)isoxazolidine-2-carbonyl]cyclohexyl]methyl]-5-fluoro-N-methyl-benzamide] | 0.005 | 0.007
3 | Cc1nccn1-c1cc(F)cc(C[C@H]2CC[C@H](C(=O)N3OCC[C@H]3c3cncc(C#N)c3)CC2)c1 [compound 210, trans-5-[(3S)-2-[4-[[3-fluoro-5-(2-methylimidazol-1-yl)phenyl]methyl]cyclohexanecarbonyl]isoxazolidin-3-yl]pyridine-3-carbonitrile] | 0.017 | 0.025
4 | Cc1cc(C[C@H]2CC[C@H](C(=O)N3OCC[C@H]3c3cnccn3)CC2)cn2c(C)nnc12 [compound 301, trans-[4-[(3,8-dimethyl-[1,2,4]triazolo[4,3-a]pyridin-6-yl)methyl]cyclohexyl]-[(3S)-3-pyrazin-2-yl-1,2-oxazolidin-2-yl]methanone] | 0.033 | 0.034
5 | Cc1ccc(C[C@H]2CC[C@H](C(=O)N3OCC[C@H]3c3cc(F)cc(C#N)c3)CC2)nn1 [compound 303, trans-3-fluoro-5-[(3S)-2-[4-[(6-methylpyridazin-3-yl)methyl]cyclohexanecarbonyl]isoxazolidin-3-yl]benzonitrile] | 0.007 | 0.016
6 | N#Cc1cc(F)cc([C@@H]2CCON2C(=O)[C@H]2CC[C@H](Cn3cnc4c(F)cc(C(N)=O)cc43)CC2)c1 [compound 80, trans-1-((4-((S)-3-(3-cyano-5-fluorophenyl)isoxazolidine-2-carbonyl)cyclohexyl)methyl)-4-fluoro-1H-benzo[d]imidazole-6-carboxamide] | 0.06 | 0.745
7 | Cc1nn(C)cc1-c1cncc(C[C@H]2CC[C@H](C(=O)N3OCC[C@H]3c3cnccn3)CC2)c1 [compound 308, trans-[4-[[5-(1,3-dimethylpyrazol-4-yl)-3-pyridyl]methyl]cyclohexyl]-[(3S)-3-pyrazin-2-ylisoxazolidin-2-yl]methanone] | 0.021 | 0.047
8 | NC(=O)c1ccc2cnn(C[C@H]3CC[C@H](C(=O)N4OCC[C@H]4c4ccccn4)CC3)c2c1 [Compound 230, trans-1-[[4-[(3S)-3-(2-pyridyl)isoxazolidine-2-carbonyl]cyclohexyl]methyl]indazole-6-carboxamide] | 0.131 | 0.376
9 | N#Cc1cncc([C@@H]2CCON2C(=O)[C@H]2CC[C@H](Cn3ccc4cc(C(N)=O)ccc43)CC2)c1 [compound 252, trans-1-[[4-[(3S)-3-(5-cyano-3-pyridyl)isoxazolidine-2-carbonyl]cyclohexyl]methyl]indole-5-carboxamide] | 0.017 | 0.054
10 | Cc1cc([C@@H]2CCON2C(=O)[C@H]2CC[C@H](Cn3cc4c(F)cc(C#N)cc4n3)CC2)co1 [compound 42, trans-4-fluoro-2-((4-((S)-3-(5-methylfuran-3-yl)isoxazolidine-2-carbonyl)cyclohexyl)methyl)-2H-indazole-6-carbonitrile] | 0.039 | 0.119
11 | Cc1nc(C[C@H]2CC[C@H](C(=O)N3OCCC3c3cnc(C)c(F)c3)CC2)cs1 (some centres unmarked) [compound 360] | 0.02 | 0.007
12 | Cc1nc2ccc(C[C@H]3CC[C@H](C(=O)N4OCC[C@H]4c4cc(C#N)ccc4F)CC3)cn2n1 [compound 289, trans-4-fluoro-3-[(3S)-2-[4-[(2-methyl-[1,2,4]triazolo[1,5-a]pyridin-6-yl)methyl]cyclohexanecarbonyl]isoxazolidin-3-yl]benzonitrile] | 0.036 | 0.733
13 | Cc1cn2cc(C[C@H]3CC[C@H](C(=O)N4OCC[C@H]4c4cnccn4)CC3)ccc2n1 [compound 226, trans-[4-[(2-methylimidazo[1,2-a]pyridin-6-yl)methyl]cyclohexyl]-[(3S)-3-pyrazin-2-ylisoxazolidin-2-yl]methanone] | 0.044 | 0.04
14 | COc1cncc([C@@H]2CCON2C(=O)[C@H]2CC[C@H](Cn3ncc4ccc(C#N)cc43)CC2)n1 [compound 190, trans-1-[[4-[(3S)-3-(6-methoxypyrazin-2-yl)isoxazolidine-2-carbonyl]cyclohexyl]methyl]indazole-6-carbonitrile] | 0.013 | 0.004
15 | NC(=O)c1cc(C[C@H]2CC[C@H](C(=O)N3OCC[C@H]3c3cc(F)cc(F)c3)CC2)ccc1F [compound 192, trans-5-[[4-[(3S)-3-(3,5-difluorophenyl)isoxazolidine-2-carbonyl]cyclohexyl]methyl]-2-fluoro-benzamide] | 0.005 | 0.003
16 | N#Cc1cncc([C@@H]2CCON2C(=O)[C@H]2CC[C@H](Cn3cc(C#N)ccc3=O)CC2)c1 [compound 122, trans-1-[[4-[(3S)-3-(5-cyano-3-pyridyl)isoxazolidine-2-carbonyl]cyclohexyl]methyl]-6-oxo-pyridine-3-carbonitrile] | 0.125 | 0.797
17 | CNC(=O)c1ccc(F)c(C[C@H]2CC[C@H](C(=O)N3OCC[C@H]3c3ccc(F)cc3)CC2)c1 [compound 173, trans-4-fluoro-3-[[4-[(3S)-3-(4-fluorophenyl)isoxazolidine-2-carbonyl]cyclohexyl]methyl]-N-methyl-benzamide] | 0.018 | 0.017
18 | Cc1nc2cc(C[C@H]3CC[C@H](C(=O)N4OCC[C@H]4c4cccc(C#N)c4)CC3)ccn2n1 [compound 1, trans-3-[(3S)-2-[4-[(2-methyl-[1,2,4]triazolo[1,5-a]pyridin-7-yl)methyl]cyclohexanecarbonyl]isoxazolidin-3-yl]benzonitrile] | 0.021 | 0.029
19 | N#Cc1cc(F)cc([C@@H]2CCON2C(=O)[C@H]2CC[C@H](Cn3cc4ncc(C#N)cc4n3)CC2)c1 [compound 24, trans-2-((4-((S)-3-(3-cyano-5-fluorophenyl)isoxazolidine-2-carbonyl)cyclohexyl)methyl)-2H-pyrazolo[4,3-b]pyridine-6-carbonitrile] | 0.109 | 0.471
